Reference: ChEMBL document CHEMBL1641464, “1-(Arylsulfonyl)-2,3-dihydro-1H-quinolin-4-one derivatives as 5-HT(6) serotonin receptor ligands” (Bioorg Med Chem Lett, 2011)

Columns and labels:
[1] = biological target: T1, 5-hydroxytryptamine receptor 6 (Homo sapiens, UniProt P50406); experiment: Displacement of [3H]LSD from human 5HT6 receptor expressed in HEK293 cells; type: cell-based
[2] = biological target: T1, 5-hydroxytryptamine receptor 6; experiment: Binding affinity to 5HT6 receptor
[3] = biological target: T1, 5-hydroxytryptamine receptor 6; experiment: Antagonist activity at human 5HT6 receptor expressed in HeLa cells assessed as inhibition of 5-HT-stimulated cAMP accumulation; type: functional, cell-based
[4] = biological target: T2, D(4) dopamine receptor (Homo sapiens, UniProt P21917); experiment: Displacement of [3H]spiperone from human dopamine D4 receptor expressed in cells; type: cell-based
T2 sequence (P21917 whole entry): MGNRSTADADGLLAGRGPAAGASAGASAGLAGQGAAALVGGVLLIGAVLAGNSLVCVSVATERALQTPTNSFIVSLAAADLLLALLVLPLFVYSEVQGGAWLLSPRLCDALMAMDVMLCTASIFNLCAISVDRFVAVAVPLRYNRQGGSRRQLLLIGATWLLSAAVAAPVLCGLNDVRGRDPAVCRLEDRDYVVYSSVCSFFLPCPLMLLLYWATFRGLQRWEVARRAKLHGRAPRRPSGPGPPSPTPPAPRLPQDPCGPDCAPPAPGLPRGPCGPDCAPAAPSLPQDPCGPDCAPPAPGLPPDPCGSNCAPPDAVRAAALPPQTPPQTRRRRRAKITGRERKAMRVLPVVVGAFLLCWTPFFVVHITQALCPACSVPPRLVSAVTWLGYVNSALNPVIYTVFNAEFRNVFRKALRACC

[5] = biological target: T3, 5-hydroxytryptamine receptor 2C (Homo sapiens, UniProt P28335); experiment: Displacement of [3H]mesulergine from human 5HT2C receptor expressed in cells; type: cell-based
T3 sequence (P28335 whole entry): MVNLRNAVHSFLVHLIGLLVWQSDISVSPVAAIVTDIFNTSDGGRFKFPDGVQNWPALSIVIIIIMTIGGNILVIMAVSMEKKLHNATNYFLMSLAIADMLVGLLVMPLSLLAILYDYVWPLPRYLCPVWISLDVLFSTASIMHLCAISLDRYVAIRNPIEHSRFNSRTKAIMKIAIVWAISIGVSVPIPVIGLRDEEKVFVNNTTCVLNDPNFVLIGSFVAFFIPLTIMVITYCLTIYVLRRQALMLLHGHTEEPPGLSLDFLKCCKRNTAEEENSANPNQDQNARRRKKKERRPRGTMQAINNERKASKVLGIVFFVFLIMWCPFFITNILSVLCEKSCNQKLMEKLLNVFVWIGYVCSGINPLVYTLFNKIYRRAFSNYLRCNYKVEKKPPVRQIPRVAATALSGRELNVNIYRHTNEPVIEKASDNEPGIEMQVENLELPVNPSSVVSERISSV

[6] = biological target: 5-hydroxytryptamine receptor 7 (Homo sapiens, UniProt P34969); experiment: Displacement of [3H]LSD from human 5HT7 receptor expressed in cells; type: cell-based
[7] = biological target: D(2) dopamine receptor (Homo sapiens, UniProt P14416); experiment: Displacement of [3H]spiperone from human dopamine D2 receptor expressed in cells; type: cell-based
[8] = biological target: D(3) dopamine receptor (Homo sapiens, UniProt P35462); experiment: Displacement of [3H]spiperone from human dopamine D3 receptor expressed in cells; type: cell-based
[9] = biological target: T4, 5-hydroxytryptamine receptor 1A (Homo sapiens, UniProt P08908); experiment: Displacement of [3H]8-OH-DPAT from human 5HT1A receptor expressed in cells; type: cell-based
T4 sequence (P08908 whole entry): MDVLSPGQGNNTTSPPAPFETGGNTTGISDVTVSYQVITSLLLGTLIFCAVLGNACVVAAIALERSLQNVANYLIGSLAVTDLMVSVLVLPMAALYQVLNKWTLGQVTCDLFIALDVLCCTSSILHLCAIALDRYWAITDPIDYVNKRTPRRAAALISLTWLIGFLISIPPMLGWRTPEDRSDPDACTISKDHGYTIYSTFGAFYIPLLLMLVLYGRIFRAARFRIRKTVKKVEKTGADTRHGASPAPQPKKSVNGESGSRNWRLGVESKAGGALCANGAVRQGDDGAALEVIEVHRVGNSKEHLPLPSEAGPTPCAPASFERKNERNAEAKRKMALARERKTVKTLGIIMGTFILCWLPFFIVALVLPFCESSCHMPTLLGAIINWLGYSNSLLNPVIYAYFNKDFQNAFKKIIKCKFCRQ

[10] = biological target: 5-hydroxytryptamine receptor 2A (Homo sapiens, UniProt P28223); experiment: Displacement of [3H]ketanserin from human 5HT2A receptor expressed in cells; type: cell-based
[11] = Lipophilicity, log D of the compound; type: physicochemical; conditions: octanol/water

Sequence of 5-hydroxytryptamine receptor 7 (P34969 whole entry): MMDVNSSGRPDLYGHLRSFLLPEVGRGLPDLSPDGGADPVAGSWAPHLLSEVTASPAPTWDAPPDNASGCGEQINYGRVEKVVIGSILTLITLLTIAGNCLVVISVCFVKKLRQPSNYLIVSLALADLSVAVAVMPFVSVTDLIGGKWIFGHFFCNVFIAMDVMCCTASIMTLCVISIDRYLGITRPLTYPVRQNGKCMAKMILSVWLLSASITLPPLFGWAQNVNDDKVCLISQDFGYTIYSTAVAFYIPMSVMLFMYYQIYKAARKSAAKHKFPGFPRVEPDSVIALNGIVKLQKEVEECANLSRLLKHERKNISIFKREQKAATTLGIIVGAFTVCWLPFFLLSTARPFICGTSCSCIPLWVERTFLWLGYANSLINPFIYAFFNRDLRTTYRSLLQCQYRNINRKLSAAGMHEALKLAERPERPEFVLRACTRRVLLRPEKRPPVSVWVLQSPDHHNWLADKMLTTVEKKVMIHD
Sequence of 5-hydroxytryptamine receptor 2A (P28223 whole entry): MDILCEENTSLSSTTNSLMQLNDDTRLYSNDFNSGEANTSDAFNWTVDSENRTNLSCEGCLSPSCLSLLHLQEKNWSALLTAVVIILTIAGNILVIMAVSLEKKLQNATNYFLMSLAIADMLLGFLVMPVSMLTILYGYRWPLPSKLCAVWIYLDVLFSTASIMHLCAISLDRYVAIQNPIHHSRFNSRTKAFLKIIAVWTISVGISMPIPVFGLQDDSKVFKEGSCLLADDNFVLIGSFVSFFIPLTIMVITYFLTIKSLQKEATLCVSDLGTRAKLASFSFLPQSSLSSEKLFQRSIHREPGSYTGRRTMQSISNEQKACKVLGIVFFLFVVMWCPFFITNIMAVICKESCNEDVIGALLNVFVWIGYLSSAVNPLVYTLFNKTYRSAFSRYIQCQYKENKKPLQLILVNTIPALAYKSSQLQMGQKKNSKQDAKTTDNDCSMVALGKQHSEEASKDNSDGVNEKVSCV
T1 sequence (P50406 whole entry): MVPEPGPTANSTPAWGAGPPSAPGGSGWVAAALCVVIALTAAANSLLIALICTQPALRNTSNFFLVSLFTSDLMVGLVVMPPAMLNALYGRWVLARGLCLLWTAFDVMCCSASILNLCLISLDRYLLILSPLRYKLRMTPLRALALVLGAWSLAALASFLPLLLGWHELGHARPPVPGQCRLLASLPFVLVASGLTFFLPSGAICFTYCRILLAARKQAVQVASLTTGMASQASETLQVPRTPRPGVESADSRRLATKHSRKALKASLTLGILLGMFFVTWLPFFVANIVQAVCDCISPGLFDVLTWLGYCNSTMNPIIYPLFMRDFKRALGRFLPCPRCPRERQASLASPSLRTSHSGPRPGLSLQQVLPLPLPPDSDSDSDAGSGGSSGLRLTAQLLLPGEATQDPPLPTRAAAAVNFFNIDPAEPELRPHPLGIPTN
Sequence of D(2) dopamine receptor (P14416 whole entry): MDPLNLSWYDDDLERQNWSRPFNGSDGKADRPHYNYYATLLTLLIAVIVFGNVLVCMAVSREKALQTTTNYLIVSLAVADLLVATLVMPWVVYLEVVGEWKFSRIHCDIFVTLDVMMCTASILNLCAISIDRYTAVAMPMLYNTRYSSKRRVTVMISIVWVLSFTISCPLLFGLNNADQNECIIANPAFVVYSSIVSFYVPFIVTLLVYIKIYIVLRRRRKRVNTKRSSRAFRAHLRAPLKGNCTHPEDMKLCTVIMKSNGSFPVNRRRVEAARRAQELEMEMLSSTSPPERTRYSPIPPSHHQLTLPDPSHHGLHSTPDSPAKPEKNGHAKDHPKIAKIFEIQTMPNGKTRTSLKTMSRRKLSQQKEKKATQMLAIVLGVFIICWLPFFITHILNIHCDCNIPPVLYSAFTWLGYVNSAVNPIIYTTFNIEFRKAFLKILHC
Sequence of D(3) dopamine receptor (P35462 whole entry): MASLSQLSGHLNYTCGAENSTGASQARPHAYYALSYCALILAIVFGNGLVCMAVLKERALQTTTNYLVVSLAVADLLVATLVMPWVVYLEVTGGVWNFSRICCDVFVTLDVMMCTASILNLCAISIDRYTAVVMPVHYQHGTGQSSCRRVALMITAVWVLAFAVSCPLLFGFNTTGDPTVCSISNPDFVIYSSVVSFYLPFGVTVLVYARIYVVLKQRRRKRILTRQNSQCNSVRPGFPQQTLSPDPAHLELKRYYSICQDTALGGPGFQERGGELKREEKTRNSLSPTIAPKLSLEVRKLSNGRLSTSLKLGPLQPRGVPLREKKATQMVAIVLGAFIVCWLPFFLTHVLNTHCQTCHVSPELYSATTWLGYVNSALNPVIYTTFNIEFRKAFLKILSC

Row | Compound | IC50 [1] | IC50 [4] | IC50 [5] | IC50 [6] | IC50 [7] | IC50 [8] | IC50 [9] | IC50 [10] | further results
1 | Cc1ccc(S(=O)(=O)N2CCC(=O)c3c(N4CCN(C)CC4)cccc32)cc1 | 129 nM | – | – | – | – | – | – | – | –
2 | CSc1nn2c(N3CCNCC3)c3c(nc2c1S(=O)(=O)c1ccccc1)CCC3 | – | – | – | – | – | – | – | – | Ki [2]: 2.51 nM
3 | CN1CCN(c2ccc3c(c2)C(=O)CCN3S(=O)(=O)c2ccc3ccccc3c2)CC1 | 311 nM | – | – | – | – | – | – | – | –
4 | CN1CCN(c2ccc3c(c2)N(S(=O)(=O)c2ccc4ccccc4c2)CCC3=O)CC1 | 26 nM | 3.61 µM | 5190 nM | 143 nM | > 10000 nM | 1300 nM | 672 nM | 366 nM | IC50 [3]: 188 nM
5 | CN1CCN(c2cccc3c2C(=O)CCN3S(=O)(=O)c2ccc3ccccc3c2)CC1 | 61 nM | 1.79 µM | 438 nM | 620 nM | > 10000 nM | 2920 nM | 333 nM | 760 nM | –
6 | CC1CC(=O)c2ccc(N3CCN(C)CC3)cc2N1S(=O)(=O)c1ccc2ccccc2c1 (stereo not given) | 28 nM | > 10 µM | 558 nM | > 10000 nM | 136 nM | 1520 nM | 1600 nM | 1460 nM | logD [11]: 3.2
7 | C[C@@H]1CC(=O)c2ccc(N3CCN(C)CC3)cc2N1S(=O)(=O)c1ccc2ccccc2c1 | 43 nM | – | – | – | – | – | – | – | –
8 | C[C@H]1CC(=O)c2ccc(N3CCN(C)CC3)cc2N1S(=O)(=O)c1ccc2ccccc2c1 | 17 nM | – | – | – | – | – | – | – | –
9 | COc1cc2c(cc1N1CCN(C)CC1)N(S(=O)(=O)c1ccc3ccccc3c1)CCC2=O | 165 nM | – | – | – | – | – | – | – | –
10 | Cc1c(S(=O)(=O)N2CCC(=O)c3ccc(N4CCN(C)CC4)cc32)sc2ccc(Cl)cc12 | 419 nM | – | – | – | – | – | – | – | –
11 | CC1CC(=O)c2c(N3CCN(C)CC3)cccc2N1S(=O)(=O)c1ccc2ccccc2c1 (stereo not given) | 8 nM | 5.52 µM | 30 nM | 2010 nM | > 10000 nM | 482 nM | 1210 nM | 48 nM | logD [11]: 3.6
12 | C[C@@H]1CC(=O)c2c(N3CCN(C)CC3)cccc2N1S(=O)(=O)c1ccc2ccccc2c1 | 353 nM | – | – | – | – | – | – | – | –
13 | C[C@H]1CC(=O)c2c(N3CCN(C)CC3)cccc2N1S(=O)(=O)c1ccc2ccccc2c1 | 7 nM | – | – | – | – | – | – | – | –
14 | CCC1CC(=O)c2c(N3CCN(C)CC3)cccc2N1S(=O)(=O)c1ccc2ccccc2c1 (stereo not given) | 9 nM | > 10 µM | 4 nM | > 10000 nM | > 1000 nM | 623 nM | 999 nM | 455 nM | –
15 | Cc1ccc2c(c1N1CCN(C)CC1)C(=O)CC(C)N2S(=O)(=O)c1ccc2ccccc2c1 (stereo not given) | 15 nM | – | – | – | – | – | – | – | –
16 | Cc1cc(N2CCN(C)CC2)c2c(c1)N(S(=O)(=O)c1ccc3ccccc3c1)C(C)CC2=O (stereo not given) | 11 nM | > 10 µM | 19 nM | > 10000 nM | 1780 nM | 180 nM | 1230 nM | 704 nM | –
17 | CN1CCN(c2cc(Cl)cc3c2C(=O)CCN3S(=O)(=O)c2ccc3ccccc3c2)CC1 | 47 nM | – | – | – | – | – | – | – | –
18 | CN1CCN(c2cc(Br)cc3c2C(=O)CCN3S(=O)(=O)c2ccc3ccccc3c2)CC1 | 58 nM | – | – | – | – | – | – | – | –
19 | CC1CC(=O)c2c(N3CCNCC3)cccc2N1S(=O)(=O)c1ccc2ccccc2c1 (stereo not given) | 42 nM | – | – | – | – | – | – | – | –
20 | COc1ccc(NS(=O)(=O)c2sc3ccc(Cl)cc3c2C)cc1N1CCN(C)CC1 | – | – | – | – | – | – | – | – | logD [11]: 2.99
